“Also recorded” adds a separate entry of the source.

Common to all, as to assay type: in vivo, rat
The subject of one experiment is cleaved caspase 3. The experiment can be described thus: Western immunoblotting, cleaved caspase 3. As to conditions: aged rats; oral 8-AG 5 mg/kg/day, 6 weeks. As for the experimental part:
Western immunoblotting: One half of each bladder preparation was homogenized using Lysing Matrix D in a FastPrep 24 instrument (MP Biomedicals, Solon, Ohio) in HBSS (5 mM KCl, 0.3 mM KH2PO4, 138 mM NaCl, 4 mM NaHO3, 0.3 mM Na2HCO3, 0.3 mM Na2HPO4, 5.6 mM glucose and 10 mM Hepes, pH 7.4) containing complete protease inhibitor cocktail (1 tablet/10 ml, ROCHE®, Indianapolis, Ind.)) and phosphatase inhibitor cocktail (SIGMA®, 1:100). After centrifugation (13000 rpm; 15 min at 4° C.), the membrane protein fraction was prepared by suspending the membrane pellets in lysis buffer containing 0.3 M NaCl, 50 mM Tris-HCl (pH 7.6) and 0.5% Triton X-100 and the same concentration of protease inhibitors as above. The suspensions were incubated on ice and centrifuged (13000 rpm; 15 min at 4° C.). The protein concentrations of the combined supernatants were determined using the PIERCE® BCA protein assay (THERMO SCIENTIFIC®, Rockford, Ill.). After denaturation (100° C. for 5 min) in the presence of Laemmli sample buffer, lysate from each sample was separated on a 4-15% TGX Stain-Free SDS-PAGE gel (BIO-RAD® Laboratories, Hercules, Calif.). As a loading control, total protein per sample was determined using Bio-Rad® Stain Free SDS-PAGE gel technology. UV-activated protein fluorescence was imaged on a CHEMIDOC® MP (BIO-RAD®). […] The volume (intensity) of each protein species was determined and normalized to total protein using Image Lab software (BIO-RAD®).
Background: Immunoblotting shows a protein as a band on a membrane.

The test system of a further experiment is IL-1beta. The experiment can be described thus: RT-qPCR of bladder IL-1beta mRNA in CYP cystitis model. To be noted: CYP (75 mg/kg i.p.) female Sprague Dawley rats; oral 8-AG 5 mg/kg/day starting one week prior to CYP. As for the experimental part: (§1) Animals: Female Sprague Dawley rats were employed in this example (Charles River; Wilmington, Mass.). Three groups of animals were included. Group 1 received an i.p. injection of saline and was used as a control; groups 2 and 3 received an i.p. injection of cyclophosphamide (CYP, SIGMA-ALDRICH®, St Louis, Mo., day 0, 3, 6, sacrifice day 8, 75 mg/kg, i.p.) with group 3 treated with oral 8-AG (5 mg/kg/day; starting one week prior to CYP). CYP induced bladder inflammation and is a well-established pre-clinical model for BPS/IC.
RT-qPCR: Total RNA was isolated from bladders using TRIZOL® Reagent (THERMO FISHER SCIENTIFIC®; Waltham, Mass.) according to the manufacturer's instructions. The cDNA was synthesized using ISCRIPT™ cDNA synthesis kit (BIO-RAD®). qPCR analysis was performed using Power SYBR™ Green PCR Master Mix (THERMO FISHER SCIENTIFIC®) in the APPLIED BIOSYSTEMS® QUANTSTUDIO™ 3 Real-Time PCR System (THERMO FISHER SCIENTIFIC®). The primers used were as follows: for IL-1beta, 5′-[…]-3′ (forward; SEQ ID NO: 1) and 5′-[…]-3′ (reverse; SEQ ID NO: 2); for MCP-1, 5′-[…]-3′ (forward; SEQ ID NO: 3) and 5′-[…]-3′ (reverse; SEQ ID NO: 4); for β-actin, 5′-ACTCTTCCAGCCTTCCTTC-3′ (forward; SEQ ID NO: 5) and 5′-[…]-3′ (reverse; SEQ ID NO: 6). The threshold cycle (Ct) for target was subtracted from Ct for β-actin to give ΔCt. Results are expressed as 2AC.
For orientation: Quantitative PCR measures a nucleic acid by following its amplification.

For experiment [1], the system named is CYP-treated rats. The experiment can be described thus: Images of intact bladders in CYP cystitis model (inflammation and bleeding). As to conditions: CYP (75 mg/kg i.p.) female Sprague Dawley rats; oral 8-AG 5 mg/kg/day starting one week prior to CYP. On the procedure:
as §1

In experiment [2] the test system is CYP-treated rats. The experiment in a line: Voiding analysis in cyclophosphamide (CYP) cystitis model. As to conditions: CYP (75 mg/kg i.p.) female Sprague Dawley rats; oral 8-AG 5 mg/kg/day starting one week prior to CYP. As for the experimental part:
as §1
Voiding Analysis: Untreated, CYP-treated, and 8-AG-treated CYP rats were placed in metabolic cages (24 hr; once per week) for the duration of the study. The light cycle was from 7:00 AM to 7:00 PM, and food and water were provided ad libitum. […] Data were averaged for 24 h and analyzed for 12-h periods during the day (7:00 AM-7:00 PM) and night (7:00 PM-7:00 AM). Voiding frequency, total voided volume, and volume per void were analyzed. Voiding frequency was calculated as the number of voiding events per hour during 24 hr and during the 12-hr day and 12-hr night periods. Volume per void, which defines bladder capacity, was calculated as an average of the voids occurring during these periods.

In experiment [3] the test system is CYP-treated rats. The experiment in a line: Laser Doppler bladder blood flow in CYP cystitis model. To be noted: CYP (75 mg/kg i.p.) female Sprague Dawley rats; oral 8-AG 5 mg/kg/day starting one week prior to CYP. As for the experimental part:
as §1
Blood Flow Changes: Real-time bladder blood perfusion (1 mm^3 tissue) was accomplished using a BLF22D laser Doppler flowmeter (Transonic Systems, Inc) with a surface probe (TypeS-APLPHS) applied to the serosal surface of the bladder (apex and neck) wall using Doppler light shift from moving RBCs to analyze flow by the Bonner algorithm. This method gives robust, non-invasive microvascular flow signals in the bladder wall of anesthetized rats.

As to `Nc1nc2[nH]c(N)nc2c(=O)[nH]1` [8-AG, 8-Aminoguanine], in the experiment on cleaved caspase 3, the “EUS cleaved caspase 3” value is reported as “restored to a younger state”, the “cleaved caspase 3 in bladder mucosa” value is reported as “reversed or restored to levels similar to the younger state; also recorded: restored changes similar to a younger state” and the “cleaved caspase 3 in detrusor smooth muscle” value is reported as “levels similar to the younger state; also recorded: restored these biomarkers to that of a younger state”. The “IL-1beta mRNA expression in bladder” value in the experiment on IL-1beta is listed as “suppressed; also recorded: near the detection limit; also recorded: nearly abolished”. Moreover, the “bladder inflammation and bleeding (images of intact bladders)” value in the experiment with CYP-treated rats [1] is “nearly abolished”. In the experiment on CYP-treated rats [2], the intercontraction interval result is on record as “attenuates” and the voiding frequency entry is “attenuates”. For the same compound, the “bladder blood flow (CYP-induced hyperemia)” value in the experiment on CYP-treated rats [3] was “abolished; also recorded: reversed to a control state”.
